Measured values as given in paper PMC11145868, “Protein target similarity is positive predictor of in vitro antipathogenic activity: a drug repurposing strategy for Plasmodium falciparum” (Journal of Cheminformatics, 2024).
Where a name gives a salt, the structure may show the parent alone. Read-outs that look alike come from different tables or passages of the source. Numbered stars: 1 amine (or outer) side, 2 acyl side, 3 side chain; on linkers, the order of the positions; unused ones are H or OH. Bridge positions count the residues as written; N and C are the ends. Square brackets hold non-standard residues; d marks the D form. Peptide text beside a SMILES is read from it. I, II: the chains in the order shown. Actinocin(9to1) = Cc1c2oc3c(C)ccc(C(=O)[*:1])c3nc-2c(C(=O)[*:2])c(N)c1=O; NMeV = CN[C@H](C(=O)O)C(C)C; Sar = CNCC(=O)O

Experiments:
HepG2 cells [1] = tested on: HepG2 cells
HEK293T cells [2] = tested on: HEK293T cells
P. falciparum Dd2-HLH [3] = test: microbe, parasite or virus in culture; assay type: cell-based, Plasmodium falciparum
[4] = target: P. berghei-luciferase sporozoites; test: microbe, parasite or virus in culture; assay type: cell-based, Plasmodium berghei
in vitro = settings: human
P. falciparum Dd2-HLH [5] = test: microbe, parasite or virus in culture; assay type: cell-based, Plasmodium falciparum; remark: listed apart in the source
HEK293T cells [6] = test: Mammalian cell cytotoxicity assay, HEK293T (CellTiter-Glo, 72 h); settings: read-out: HEK CC50; HEK293T cells
HepG2 cells [7] = test: Mammalian cell cytotoxicity assay, HepG2 (CellTiter-Glo, 72 h); settings: read-out: HEP CC50; HepG2 cells
[8] = as above; settings: human
[9] = P. falciparum blood-stage parasites, 72 hours in culture, read-out: Blood stage 72h EC50
[10] = liver-stage parasites, 48 hours in culture, read-out: Liver stage 48h EC50
[11] = Plasmodium falciparum, DD2, 72 h, read-out: Blood stage 72h EC50
[12] = Plasmodium berghei, HepG2, liver-stage parasites, 48 hours in culture, read-out: Liver stage 48h EC50
[13] = Plasmodium falciparum, DD2, 48 h, read-out: Blood stage 48h EC50
[14] = P. falciparum blood-stage parasites, 48 hours in culture, read-out: Blood stage 48h EC50

| SMILES | CC50 (HepG2 cells [1]) [nM] | CC50 (HEK293T cells [2]) [nM] | EC50 (P. falciparum Dd2-HLH [3]; [9]) [nM] | EC50 [4, 10] [nM] | CC50 (in vitro) [nM] | EC50 (P. falciparum Dd2-HLH [5]; [14]) [nM] | also measured |
| --- | --- | --- | --- | --- | --- | --- | --- |
| CCNCc1cncc(-c2ccc3[nH]nc(-c4nc5c(F)cc(F)cc5[nH]4)c3c2)c1C [AG-024322] | 112 | 145 | 423 | 2990 |  |  |  |
| CC[C@@]1(O)C[C@H](O[C@H]2C[C@H](N(C)C)[C@H](O[C@H]3C[C@H](O)[C@H](O[C@H]4CCC(=O)[C@H](C)O4)[C@H](C)O3)[C@H](C)O2)c2c(cc3c(c2O)C(=O)c2c(O)cccc2C3=O)[C@H]1C(=O)OC [Aclarubicin] |  |  |  |  | 166 |  | EC50 (P. falciparum Dd2-HLH [3]; [11]): 302 nM; EC50 [4, 12]: 2230 nM; EC50 (P. falciparum Dd2-HLH [5]; [13]): 154 nM |
| CCN(CC)CC(O)CNc1c2ccc(Cl)cc2nc2ccc(OC)cc12 (stereo not drawn) [Acranil] |  |  | 20 | 312 |  | 8 | CC50 (HEK293T cells [6]): 1430 nM; CC50 (HepG2 cells [7]): 1110 nM |
| CO[C@H]1/C=C\C=C(/C)C(=O)NC2=CC(=O)C(NCCN(C)C)=C(C[C@@H](C)C[C@H](OC)[C@H](O)[C@@H](C)/C=C(\C)[C@@H]1OC(N)=O)C2=O [Alvespimycin hydrochloride] |  |  |  |  | 164 |  | EC50 (P. falciparum Dd2-HLH [3]; [11]): 273 nM; EC50 [4, 12]: 129 nM; EC50 (P. falciparum Dd2-HLH [5]; [13]): 159 nM |
| CCCC1(CCC)CCC2(CCN(CCCN(CC)CC)C2)CC1 [Atiprimod dimaleate] |  |  | 430 | 7330 |  | 43 | CC50 (HEK293T cells [6]): 1720 nM; CC50 (HepG2 cells [7]): 2990 nM |
| NC(=O)[C@@H](CC1CC1)[C@@H](CCC(F)(F)F)C(=O)N[C@H]1N=C(c2ccccc2)c2cccc(F)c2NC1=O [BMS-983970] | 59 | > 9950 | 84 | 102 |  | 63 |  |
| CCN(CC)CCN1C(=O)c2c(c3c4cccc(Cl)c4n([C@@H]4O[C@H](CO)[C@@H](OC)[C@H](O)[C@H]4O)c3c3[nH]c4c(Cl)cccc4c23)C1=O [Becatecarin] | 158 | 143 | 194 | 7160 |  |  |  |
| Cc1cc2c(C(N)=O)cccc2n1-c1nc2c(c(NCc3ccccc3)n1)COCC2 [CB-5083] |  |  |  |  | 469 |  | EC50 (P. falciparum Dd2-HLH [3]; [11]): 608 nM; EC50 ([4]; Plasmodium berghei, HepG2, 48 h, read-out: Liver stage 48h EC50): 540 nM; CC50 at 72 h [8]: 468 nM; EC50 (P. falciparum Dd2-HLH [5]; [13]): 233 nM |
| CCCCCN=C(N)Nc1nc(-c2cnc(C)[nH]2)cs1 [CP 66948] | > 9950 | > 9950 | 977 | > 10000 |  | 615 |  |
| CCC(CC)Nc1cc(C)nc(Oc2c(C)cc(C)cc2C)c1C [CP-376395] |  |  | 884 | 6260 |  | 835 | CC50 (HEK293T cells [6]): > 9950 nM; CC50 (HepG2 cells [7]): 2500 nM |
| CN(C)CCOc1ccc2[nH]c(C(=O)NCC#Cc3ccc(C(=O)NO)cc3)cc2c1 [CRA-026440] | 107 | 836 | 63 | 2490 |  | 15 |  |
| COc1ccc(C)cc1NC(=O)Nc1nc2ccc(Nc3ncnc4cc(OCCCN5CCN(C)CC5)c(OC)cc34)cc2s1 [Compound 4SC-203] | 4690 | 3000 | 729 | 3330 |  |  |  |
| C[C@@H](Oc1cc(-c2cnn(C3CCNCC3)c2)cnc1N)c1c(Cl)ccc(F)c1Cl [Crizotinib] |  |  |  |  | > 9950 |  | EC50 (P. falciparum Dd2-HLH [3]; [11]): 827 nM; EC50 [4, 12]: 8520 nM; EC50 (P. falciparum Dd2-HLH [5]; [13]): 225 nM |
| C[C@@H]1C[C@@H]([C@H](O)CC2CC(=O)NC(=O)C2)C(=O)[C@@H](C)C1 [Cycloheximide] |  |  |  |  | 759 |  | EC50 (P. falciparum Dd2-HLH [3]; Plasmodium falciparum, DD2, P. falciparum blood-stage parasites, 72 hours in culture, read-out: Blood stage 72h EC50): 301 nM; EC50 [4, 12]: 109 nM; EC50 (P. falciparum Dd2-HLH [5]; Plasmodium falciparum, DD2, P. falciparum blood-stage parasites, 48 hours in culture, read-out: Blood stage 48h EC50): 178 nM |
| Cc1c2oc3c(C)ccc(C(=O)N[C@@H]4C(=O)N[C@H](C(C)C)C(=O)N5CCC[C@H]5C(=O)N(C)CC(=O)N(C)[C@@H](C(C)C)C(=O)O[C@@H]4C)c3nc-2c(C(=O)N[C@@H]2C(=O)N[C@H](C(C)C)C(=O)N3CCC[C@H]3C(=O)N(C)CC(=O)N(C)[C@@H](C(C)C)C(=O)O[C@@H]2C)c(N)c1=O [Dactinomycin, reference compound] (I: T[dV]P[Sar][NMeV] / II: T[dV]P[Sar][NMeV]; ester I:1-I:C, II:1-II:C; linker I:N-II:N via Actinocin(9to1)) |  |  |  |  | 9 |  | EC50 (P. falciparum Dd2-HLH [3]; Plasmodium falciparum, DD2, blood-stage parasites, 72 h in culture, read-out: Blood stage 72 h EC50): 8 nM; EC50 ([4]; Plasmodium berghei, liver-stage parasites, 48 h in culture, read-out: Liver 48 h EC50): 73 nM; CC50 at 72 h [8]: 3 nM; EC50 (P. falciparum Dd2-HLH [5]; Plasmodium falciparum, DD2, blood-stage parasites, 48 h in culture, read-out: Blood stage 48 h EC50): 3 nM |
| NC(=O)C(c1ccccc1)(c1ccccc1)[C@@H]1CCN(CCc2ccc3c(c2)CCO3)C1 [Darifen/Acin Hydrobromide] |  |  |  |  | > 9950 |  | EC50 (P. falciparum Dd2-HLH [3]; [11]): 324 nM; EC50 [4, 12]: > 10000 nM; CC50 at 72 h [8]: > 9990 nM; EC50 (P. falciparum Dd2-HLH [5]; [13]): 1430 nM |
| CC(C)CCNC(=O)C(CC(C)C)NC(=O)C1OC1C(=O)O (stereo not drawn) [EP-475] | > 9990 | > 9950 | 313 | > 10000 |  | 267 |  |
